Measured values from US9724351B2, “Compounds for the treatment of paramoxyvirus viral infections” (priority 2012, dated 2017).

Key:
[1] = Cytotoxicity Determination; type: cell-based; conditions: human, HEp-2 cells, without addition of virus, CCK-8 readout, bins (Table 4: greater than 100 μM; Table 5: equal to or less than 100 μM and greater than 10 μM), read-out: 50% cytotoxicity concentration (CC50)
Description: In order to determine the compound cytotoxicity, in parallel, each of the compounds is applied to duplicate wells in a 384-well cell plate at serial final concentrations starting from 100 μM using ½ stepwise dilutions for 7 points without addition of virus. Incubate the cells at 37° C., 5% CO2 for 5 days. Add 6 μl CCK-8 into each well and incubate in a CO2 incubator at 37° C. for 3-4 hours. Read the plates to obtain the optical densities which are used to calculate 50% cytotoxicity concentration (CC50).

[2] = tested on: Respiratory Syncytial Virus (RSV) long strain (ATCC#VR-26); assay: RSV Antiviral Assay (CPE reduction assay); type: cell-based; conditions: human respiratory syncytial virus, 120 h; HEp-2 cells infected with RSV long strain, 5 days, CCK-8 readout; bins (Table 2: less than 1 μM; Table 3: equal to or higher than 1 μM and less than 50 μM); read-out: 50% effective concentration (EC50)
Description: CPE reduction assays are performed as described by Sidwell and Huffman et al., Appl. Microbiol. (1971) 22(5):797-801 with slight modifications. HEp-2 cells (ATCC#, CCL-23) are seeded at a density of 1,500 cells/30 μl/well into the 384-well cell plate(s) (Corning#3701) one day prior to the assay. Compounds are added into 384-well cell plates by Labcyte POD 810 Plate Assembler system. Each of the test compounds is provided to duplicate wells of a 384-well cell plate at final concentrations starting from 100 μM or 1 μM using ⅓ stepwise dilutions for 9 points. Quick-thaw Respiratory Syncytial Virus (RSV) long strain (ATCC#VR-26) stock in a 37° C. water bath. Place on ice until ready to use. Viruses are diluted to the concentration of 100 TCID50/30 μl with medium and 30 μl diluted RSV are added into related wells of 384-well cell plates. For each plate, sixteen wells are set aside as uninfected, untreated cell controls (CC), and nine wells per test plate receive virus only as a control for virus replication (VC). The final DMSO concentration of all wells is 1%. Place the plates at 37° C., 5% CO2 for 5 days.
After 5 days incubation, observe the CPE of cells in all wells. […] Six μl of cell counting kit-8 reagent (CCK-8, Dojindo Molecular Technologies Inc., CK04-20) are added to each well, which allows colorimetric assays to determine the number of viable cells through the dehydrogenase activity detection. After 3-4 hour incubation, the absorbance of each well is measured with a spectrophotometric plate reader at 450 nm wavelength, using a 630 nm filter as background according to manufacturer's instruction. The 50% effective concentration (EC50) is calculated by using regression analysis, based on the mean O.D. at each concentration of compound.

| Compound | CC50 at 5 days [1] [µM] | EC50 [2] [nM] |
| --- | --- | --- |
| CCc1cc(C(=O)CNC(=O)c2ccc(OCCO)c(OC)c2)nc(-c2csc3c(F)cccc23)c1OC [Compound 2104] | 10 to 100 | < 1000 |
| COc1ccc(C(=O)NCC(=O)N2CCCC(c3ccc(F)c4sccc34)=N2)cc1OC [Compound 3500] | > 100 | < 1000 |
| CCCn1cc(-c2csc3c(F)cccc23)nc1C(=O)CNC(=O)c1ccc(OC)c(OC)c1 [Compound 1355] | 10 to 100 | 1000 to 50000 |
| COc1cc(C(=O)NCC(=O)c2ccc(OC)c(-c3ccnc(Cl)c3)n2)ccc1OCCO [Compound 1611] | > 100 | 1000 to 50000 |
| COc1ccc(C(=O)NCC(=O)c2cn(C)c(-c3csc4c(F)cccc34)n2)cc1OC [Compound 1228] | 10 to 100 | 1000 to 50000 |
| C/C(=N\NC(=O)CNC(=O)c1ccc2c(c1)OC(F)(F)O2)c1csc2ccccc12 [Compound 474] | 10 to 100 | 1000 to 50000 |
| CCN(CC)c1ccc(C(=O)NCC(=O)c2ccc(OC)c(-c3ccc(F)c(Cl)c3)n2)cc1 [Compound 1320] | > 100 | 1000 to 50000 |
| COc1cc(C(=O)NCC(=O)c2ccc(OC)c(-c3ccc(C(F)(F)F)cc3)n2)ccc1OCCO [Compound 1605] | 10 to 100 | < 1000 |
| COc1cc(C(=O)NCC(=O)c2ccc(OC)c(-c3ccc(F)c(Cl)c3)n2)ccc1-c1cnn(C)c1 [Compound 2651] | 10 to 100 | 1000 to 50000 |
| COc1ccc(C(=O)NCC(=O)N/N=C(\C)c2cc3c(F)cccc3s2)cc1OC [Compound 400-3] | > 100 | 1000 to 50000 |
| COc1ccc(C(=O)NCC(=O)c2ccc(OC)c(-c3ccccc3C#N)n2)cc1OC [Compound 1516] | 10 to 100 | 1000 to 50000 |
| COc1ccc(C(=O)NCC(=O)N/N=C/c2c(C)n(C)c3ccccc23)cc1OC [Compound 486] | 10 to 100 | 1000 to 50000 |
| COc1cc(OCCC(=O)N(C)/N=C/c2csc3c(F)cccc23)ccc1OCCO [Compound 2306] | > 100 | 1000 to 50000 |
| COc1cc(C(=O)CNC(=O)c2ccc(OCCCO)c(OC)c2)nc(-c2csc3c(F)cccc23)c1 [Compound 1216] | 10 to 100 | < 1000 |
| COCCc1ccc(C(=O)NCC(=O)c2ccc(OC)c(-c3ccc(F)c(Cl)c3)n2)cc1OC [Compound 1331] | 10 to 100 | 1000 to 50000 |
| COc1cc(C(=O)NCC(=O)c2ccc(OC)c(-c3ccc(S(C)(=O)=O)cc3)n2)ccc1OCCO [Compound 1604] | > 100 | 1000 to 50000 |
| COc1ccc(C(=O)NCC(=O)N/N=C(\C)c2csc3ccccc23)c(OC)c1OC [Compound 481] | > 100 | 1000 to 50000 |
| CCCCC/C(=N\NC(=O)CNC(=O)c1ccc(OC)c(OC)c1)c1csc2ccccc12 [Compound 448A] | 10 to 100 | 1000 to 50000 |
| COc1ccc(C(=O)NCC(=O)c2ccc(OC)c(-c3cccc4c(F)cccc34)n2)cc1OC [Compound 1522] | 10 to 100 | 1000 to 50000 |
| CCN(CC)c1cc(C(=O)NCC(=O)N/N=C(\C)c2csc3ccccc23)cs1 [Compound 511] | 10 to 100 | 1000 to 50000 |
| COc1cc(C(=O)NCC(=O)c2cccc(-c3csc4c(F)cccc34)n2)ccc1OCC(=O)O [Compound 1248] | 10 to 100 | 1000 to 50000 |
| COc1cc(C(=O)NCC(=O)N/N=C(\C)c2csc3ccccc23)ccc1OCC1CC1 [Compound 510] | 10 to 100 | < 1000 |
| COc1ccc(C(=O)NCC(=O)c2ccc(OC)c(-c3cccnc3C)n2)cc1OC [Compound 1540] | > 100 | 1000 to 50000 |
| COc1cc(C(=O)NCC(=O)c2ccc(OC)c(-c3csc4ccncc34)n2)ccc1OCCO [Compound 1621] | > 100 | 1000 to 50000 |
| COc1cc(C(=O)NCC(=O)c2ccc(OC)c(-c3coc4c(F)cccc34)n2)ccc1OCCO [Compound 1343] | > 100 | < 1000 |
| CCOc1ccc(C(=O)NCC(=O)N(C)/N=C/c2csc3c(F)cccc23)cc1OC [Compound 400-25] | > 100 | < 1000 |

| Compound | CC50 at 5 days [1] [µM] | EC50 [2] [nM] |
| --- | --- | --- |
| CCN(/N=C/c1csc2c(F)cccc12)C(=O)CNC(=O)c1ccc(OCCO)c(OC)c1 [Compound 2301] | > 100 | < 1000 |
| COc1cc(C(=O)CNC(=O)c2ccc(OCCN)c(OC)c2)nc(-c2csc3c(F)cccc23)c1 [Compound 1214] | 10 to 100 | < 1000 |
| CCCn1nc(-c2csc3c(F)cccc23)nc1C(=O)CNC(=O)c1ccc(OC)c(OC)c1 [Compound 2203] | > 100 | 1000 to 50000 |
| COc1ccc(C(=O)NCC(=O)c2ccc(OC)c(-c3ccnc(Cl)c3)n2)cc1OC [Compound 1536] | > 100 | 1000 to 50000 |
| COc1ccc(C(=O)NCC(=O)N/N=C2\CCc3sc4ccccc4c32)cc1OC [Compound 418] | 10 to 100 | 1000 to 50000 |
| CNc1ccc(C(=O)CNC(=O)c2ccc(OCCO)c(OC)c2)nc1-c1csc2c(F)cccc12 [Compound 1253] | > 100 | < 1000 |
| COCC/C(=N\NC(=O)CNC(=O)c1ccc(OC)c(OC)c1)c1csc2ccccc12 [Compound 493] | > 100 | < 1000 |
| COc1ccc(C(=O)NCC(=O)c2ccc(N(C)C)c(-c3csc4c(F)cccc34)n2)cc1OC [Compound 2101] | > 100 | 1000 to 50000 |
| COc1ccc(C(=O)NCC(=O)N/N=C(/c2ccccc2)c2ccc(F)cc2)cc1OC [Compound 430] | > 100 | 1000 to 50000 |
| COc1cc(C(=O)NCC(=O)N/N=C(\C)c2csc3ccccc23)ccc1O [Compound 478] | 10 to 100 | 1000 to 50000 |
| COc1ccc(C(=O)NCC(=O)N/N=C(\CCO)c2csc3ccccc23)cc1OC [Compound 492] | > 100 | < 1000 |
| CCCCOc1ccc(C(=O)NCC(=O)N/N=C(\C)c2csc3ccccc23)cc1OC [Compound 483] | 10 to 100 | 1000 to 50000 |
| COc1cc(C(=O)NCC(=O)c2ccc(OC)c(-c3ccc(F)c(CF)c3)n2)ccc1OCCO [Compound 1326] | > 100 | < 1000 |
| CCN(CC)c1cccc(C(=O)NCC(=O)N/N=C(\C)c2csc3ccccc23)c1 [Compound 503] | > 100 | 1000 to 50000 |
| COc1ccc(C(=O)NCC(=O)c2ccc(OC)c(-c3csc4ccccc34)n2)cc1OC [Compound 1508] | > 100 | < 1000 |
| COCC/C(=N\NC(=O)CNC(=O)c1ccc(OCCO)c(OC)c1)c1csc2c(F)cccc12 [Compound 603A] | > 100 | < 1000 |
| COc1cc(C(=O)NCC(=O)c2cn(C(C)C)cc(-c3csc4c(F)cccc34)c2=O)ccc1OCCO [Compound 2200] | > 100 | < 1000 |
| COc1cc(C(=O)NCC(=O)c2ccc(OC)c(-c3ccc(F)c(Cl)c3)n2)ccc1OCc1cnc[nH]1 [Compound 1332] | 10 to 100 | < 1000 |
| COc1cc(C(=O)NCC(=O)c2ccc(OC)c(-c3ccc(F)c(Cl)c3)n2)ccc1OCC(C)(C)O [Compound 1319] | > 100 | < 1000 |
| COc1cc(C(=O)NCC(=O)c2cccc(-c3csc4c(F)cccc34)n2)ccc1OC1CCOCC1 [Compound 1224] | > 100 | 1000 to 50000 |
| COc1cc(C(=O)NCC(=O)c2ccc(OC)c(-c3ccc(F)c(Cl)c3)n2)ccc1-n1cccn1 [Compound 2649] | 10 to 100 | 1000 to 50000 |
| COc1cc(C(=O)NCC(=O)c2cc(C(=O)O)cc(-c3csc4c(F)cccc34)n2)ccc1OCCO [Compound 1258] | > 100 | 1000 to 50000 |
| COc1cc(C(=O)NCC(=O)c2ccc(OCC3CC3)c(-c3csc4c(F)cccc34)n2)ccc1OCCO [Compound 2617] | > 100 | < 1000 |
| COc1ccc(C(=O)NCC(=O)c2nc(-c3csc4c(F)cccc34)c(C)n2C)cc1OC [Compound 1358] | 10 to 100 | < 1000 |
| C=CCC/C(=N\NC(=O)CNC(=O)c1ccc(OCC)c(OC)c1)c1csc2ccccc12 [Compound 458A] | 10 to 100 | < 1000 |
